Among the data in PMC7272432, “Amyloid Aggregation of Insulin: An Interaction Study of Green Tea Constituents” (Scientific Reports, 2020) are IC50 values, retold here.

This assay has as its target T1, human insulin (Homo sapiens, UniProt P01308).
T1 construct: gene INS; Human insulin (I2643, recombinant, expressed in yeast); 51 amino acids divided into two chains
The assay can be described thus: ThT fluorescence assay of insulin amyloid aggregation ([…] insulin, pH […] °C), supported by kinetics, AFM and ATR-FTIR. It is filed as biochemical.

T1 sequence (P01308 25-54): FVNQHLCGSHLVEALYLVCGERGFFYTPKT
T1 sequence (P01308 90-110): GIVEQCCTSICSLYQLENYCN

With `O=C(O[C@@H]1Cc2c(O)cc(O)cc2O[C@@H]1c1cc(O)c(O)c(O)c1)c1cc(O)c(O)c(O)c1` [EGCG, (-)-epigallocatechin gallate], the concentration for half-maximal inhibition (IC50) (in general, the concentration that inhibits the measured activity by half) was 476 ± 32.5 µM.
